Measurements from US12552758B2, “Inhibitors of MLH1 and/or PMS2 for cancer treatment” (NeoPhore Limited, priority 2020, dated 2026).

Experiments:
[1] = molecular target: recombinant N-terminal MLH1 (residues 15-340) (Homo sapiens (Human), UniProt P40692); assay: Fluorescence polarisation assay for MLH1 (protocol for all Examples except Examples 64, 76, 90 and 95); assay type: binding; details: FP probe displacement; 100 nM N-terminal MLH1, 5 nM probe compound, read after 15 minutes; all Examples except 64, 76, 90 and 95
Chain of recombinant N-terminal MLH1 (residues 15-340) (P40692 15-340): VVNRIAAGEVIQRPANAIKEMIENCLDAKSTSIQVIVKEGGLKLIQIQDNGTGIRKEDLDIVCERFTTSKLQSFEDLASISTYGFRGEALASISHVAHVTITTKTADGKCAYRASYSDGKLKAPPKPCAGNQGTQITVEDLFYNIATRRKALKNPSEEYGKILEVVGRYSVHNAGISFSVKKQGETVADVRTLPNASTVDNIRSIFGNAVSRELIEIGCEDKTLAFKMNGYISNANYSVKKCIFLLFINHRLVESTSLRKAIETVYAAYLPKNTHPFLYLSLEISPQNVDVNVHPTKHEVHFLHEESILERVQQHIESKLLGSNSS
Experimental: Fluorescence Polarisation Assay for MLH1 (Protocol for all Examples Except Examples 64, 76, 90 and 95)
(§1) Test compounds, as 10 mM DMSO stocks, were dispensed into a Black Fluotrac 200 384 well medium binding plate (Greiner Bio-One, item number 781076) using a Labcyte Echo acoustic liquid handler. For single point screening, test compounds were added to wells in columns 1-22 whilst DMSO was added to wells in columns 23 and 24 in order to normalise the plate. For potency determination, serial dilutions of test compounds were added to wells in columns 3-22 and DMSO volume was normalised across the plate.
20 μL assay buffer was added to all wells in columns 1 and 24 (column 24 only for single point screening) using a MultiDrop Combi (ThermoFisher). Plates were centrifuged for 1 minute at 250×g and were incubated at room temperature for 30 minutes prior to the addition of 20 μL of 2×(10 nM) of 5-((5-(4-((2-(2,4-dihydroxy-5-isopropylbenzoyl)isoindolin-5-yl)methyl)piperazin-1-yl)pentyl)carbamoyl)-2-(6-(dimethylamino)-3-(dimethyliminio)-3H-xanthen-9-yl)benzoate (referred to hereinafter as “probe compound”) in assay buffer (prepared from a 100 μM DMSO stock) with a MultiDrop Combi (ThermoFisher). The final concentration of N-terminal MLH1 was 100 nM and the final concentration of probe compound was 5 nM.
(§2) Compound plates were centrifuged for 1 minute at 250×g for 1 minute and were incubated at room temperature for 15 minutes before being read on a PheraStar FSX (fitted with 384-well aperture spoon and 540 590 590 FP optic module). The gain and focus were adjusted before each plate was read so that the polarisation of a no enzyme control (column 24) was equal to 35 mP. Data were normalised against the no inhibitor controls (column 23) and no enzyme controls (column 24).

[2] = molecular target: recombinant N-terminal PMS2 (residues 1-365) (Homo sapiens (Human), UniProt P54278); assay: Fluorescence polarisation assay for PMS2; assay type: binding; details: FP probe displacement; 10 nM N-terminal PMS2, 5 nM probe compound, read after 1 hour
Chain of recombinant N-terminal PMS2 (residues 1-365) (P54278 1-365): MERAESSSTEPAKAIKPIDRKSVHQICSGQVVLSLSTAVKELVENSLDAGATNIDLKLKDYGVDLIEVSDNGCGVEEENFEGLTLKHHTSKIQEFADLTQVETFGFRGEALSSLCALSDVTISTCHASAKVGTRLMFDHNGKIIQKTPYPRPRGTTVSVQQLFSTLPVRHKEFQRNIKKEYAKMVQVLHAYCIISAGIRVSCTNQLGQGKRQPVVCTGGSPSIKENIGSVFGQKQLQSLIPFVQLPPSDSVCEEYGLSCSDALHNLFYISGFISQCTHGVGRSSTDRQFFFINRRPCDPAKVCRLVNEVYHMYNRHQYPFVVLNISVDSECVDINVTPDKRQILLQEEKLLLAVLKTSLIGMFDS
Experimental: Fluorescence Polarisation Assay for PMS2
as §1
20 μL assay buffer was added to all wells in columns 1 and 24 (column 24 only for single point screening) using a MultiDrop Combi (ThermoFisher). Plates were centrifuged for 1 minute at 250×g and were incubated at room temperature for 30 minutes prior to the addition of 20 μL of 2×([…]) of 5-((5-(4-((2-(2,4-dihydroxy-5-isopropylbenzoyl)isoindolin-5-yl)methyl)piperazin-1-yl)pentyl)carbamoyl)-2-(6-(dimethylamino)-3-(dimethyliminio)-3H-xanthen-9-yl)benzoate (referred to hereinafter as “probe compound”) in assay buffer (prepared from a 100 μM DMSO stock) with a MultiDrop Combi (ThermoFisher). The final concentration of N-terminal PMS2 was 10 nM and the final concentration of probe compound was 5 nM.
as §2, with “1 hour” for “15 minutes”

Row | SMILES | IC50 [1] [µM] | IC50 [2] [µM]
1 | CC(Oc1cc(O)cc(O)c1C(=O)N1CCCC1)c1ccccc1 (single isomer, unassigned) [Example 13] | > 10 | > 10
2 | CC(Oc1cc(O)cc(O)c1C(=O)N1CCCC1)c1ccccc1 (single isomer, unassigned) [Example 14] | > 10 | > 10
3 | O=C(c1c(O)cc(O)cc1OCc1ncccn1)N1CCCC1 [Example 1, [2,4-dihydroxy-6-(pyrimidin-2-ylmethoxy)phenyl]-pyrrolidin-1-yl-methanone] | > 10 | > 10
4 | O=C(c1c(O)cc(O)cc1OCc1ccccc1)N1CCCC1 [Example 3, (2-benzyloxy-4,6-dihydroxy-phenyl)-pyrrolidin-1-yl-methanone] | > 10 | > 10
5 | O=C(c1c(O)cc(O)cc1OCc1ccccc1)N1Cc2ccccc2C1 [Example 4, (2-benzyloxy-4,6-dihydroxy-phenyl)-isoindolin-2-yl-methanone] | < 1 | < 1
6 | O=C(c1c(O)cc(O)cc1OCc1ccccc1)N1CCCCC1 [Example 5, (2-benzyloxy-4,6-dihydroxy-phenyl)-(1-piperidyl)methanone] | > 10 | > 10
7 | O=C(c1c(O)cc(O)cc1OCc1ccccc1)N1CC[C@@H](O)C1 [Example 7, (2-benzyloxy-4,6-dihydroxy-phenyl)-[(3R)-3-hydroxypyrrolidin-1-yl]methanone] | > 10 | > 10
8 | O=C(c1c(O)cc(O)cc1OCc1ccccc1)N1CCC[C@@H](O)C1 [Example 8, (2-benzyloxy-4,6-dihydroxy-phenyl)-[(3R)-3-hydroxy-1-piperidyl]methanone] | > 10 | –
9 | O=C(c1c(O)cc(O)cc1OCc1ccccc1)N1CCC[C@H](O)C1 [Example 9, (2-benzyloxy-4,6-dihydroxy-phenyl)-[(3S)-3-hydroxy-1-piperidyl]methanone] | > 10 | –
10 | Cc1c(O)cc(O)c(C(=O)N2CCCC2)c1OCc1ccccc1 [Example 10, (2-benzyloxy-4,6-dihydroxy-3-methyl-phenyl)-pyrrolidin-1-yl-methanone] | > 10 | 1 to 10
11 | O=C(c1c(O)cc(O)cc1OCc1ccccn1)N1CCCC1 [Example 12, [2,4-dihydroxy-6-(2-pyridylmethoxy)phenyl]-pyrrolidin-1-yl-methanone] | > 10 | > 10
12 | O=C(c1c(O)cc(O)cc1OCc1ccc(F)cc1)N1CCCC1 [Example 15, [2-[(4-fluorophenyl)methoxy]-4,6-dihydroxy-phenyl]-pyrrolidin-1-yl-methanone] | > 10 | > 10
13 | COc1ccc(COc2cc(O)cc(O)c2C(=O)N2CCCC2)cc1 [Example 16, [2,4-dihydroxy-6-[(4-methoxyphenyl)methoxy]phenyl]-pyrrolidin-1-yl-methanone] | > 10 | > 10
14 | O=C(c1c(O)cc(O)cc1OCc1cc[nH]n1)N1CCCC1 [Example 21, (2-((1H-pyrazol-3-yl)methoxy)-4,6-dihydroxyphenyl)(pyrrolidin-1-yl)methanone] | > 10 | > 10
15 | O=C(c1c(O)cc(O)cc1OCc1c[nH]nn1)N1CCCC1 [Example 22, [2,4-dihydroxy-6-(1H-triazol-4-ylmethoxy)phenyl]-pyrrolidin-1-yl-methanone] | > 10 | > 10
16 | O=C(c1c(O)cc(O)cc1OCc1ccccc1)N1Cc2ccc(Br)cc2C1 [Example 23, (2-benzyloxy-4,6-dihydroxy-phenyl)-(5-bromoisoindolin-2-yl)methanone] | < 1 | < 1
17 | COC(=O)c1ccc2c(c1)CN(C(=O)c1c(O)cc(O)cc1OCc1ccccc1)C2 [Example 24, methyl 2-(2-benzyloxy-4,6-dihydroxy-benzoyl)isoindoline-5-carboxylate] | < 1 | < 1
18 | COc1ccc2c(c1)CN(C(=O)c1c(O)cc(O)cc1OCc1ccccc1)C2 [Example 25, (2-benzyloxy-4,6-dihydroxy-phenyl)-(5-methoxyisoindolin-2-yl)methanone] | < 1 | < 1
19 | COc1cc2c(cc1OC)CN(C(=O)c1c(O)cc(O)cc1OCc1ccccc1)C2 [Example 26, (2-benzyloxy-4,6-dihydroxy-phenyl)-(5,6-dimethoxyisoindolin-2-yl)methanone] | 1 to 10 | < 1
20 | COc1ccc2c(c1)CN(C(=O)c1c(O)cc(O)cc1OC(C)c1ccccc1)C2 (stereo not drawn) [Example 28, [2,4-dihydroxy-6-(1-phenylethoxy)phenyl]-(5-methoxyisoindolin-2-yl)methanone] | 1 to 10 | < 1
21 | COc1cc2c(cc1OC)CN(C(=O)c1c(O)cc(O)cc1OC(C)c1ccccc1)C2 (stereo not drawn) [Example 29, [2,4-dihydroxy-6-(1-phenylethoxy)phenyl]-(5,6-dimethoxyisoindolin-2-yl)methanone] | 1 to 10 | < 1
22 | Cc1c(O)cc(O)c(C(=O)N2CCc3ccccc3C2)c1OCc1ccccn1 [Example 45, 3,4-dihydro-1H-isoquinolin-2-yl-[4,6-dihydroxy-3-methyl-2-(2-pyridylmethoxy)phenyl]methanone] | > 10 | –
23 | Cc1c(O)cc(O)c(C(=O)N2CCOc3ccccc32)c1OCc1ccccc1 [Example 67, (2-(Benzyloxy)-4,6-dihydroxy-3-methylphenyl)(2,3-dihydro-4H-benzo[b][1,4]oxazin-4-yl)methanone] | > 10 | –

The remaining lines, values ahead:

Row | IC50 [1] [µM] | IC50 [2] [µM] | SMILES
24 | > 10 | > 10 | O=C(c1c(O)cc(O)cc1OC1CCCC1)N1CCCC1 [Example 2, (2-(cyclopentyloxy)-4,6-dihydroxyphenyl)(pyrrolidin-1-yl)methanone]
25 | > 10 | > 10 | O=C(c1c(O)cc(O)cc1OCc1ccccc1)N1CC[C@H](O)C1 [Example 6, (2-benzyloxy-4,6-dihydroxy-phenyl)-[(3S)-3-hydroxypyrrolidin-1-yl]methanone]
26 | > 10 | > 10 | CCc1c(O)cc(O)c(C(=O)N2CCCC2)c1OCc1ccccc1 [Example 11, (2-benzyloxy-3-ethyl-4,6-dihydroxy-phenyl)-pyrrolidin-1-yl-methanone]
27 | > 10 | – | Cc1cccc(COc2cc(O)cc(O)c2C(=O)N2CCCC2)c1 [Example 17, [2,4-dihydroxy-6-(m-tolylmethoxy)phenyl]-pyrrolidin-1-yl-methanone]
28 | 1 to 10 | 1 to 10 | O=C(c1c(O)cc(O)cc1OCc1ccccc1)N1Cc2cccnc2C1 [Example 18, (2-benzyloxy-4,6-dihydroxy-phenyl)-(5,7-dihydropyrrolo[3,4-b]pyridin-6-yl)methanone]
29 | < 1 | < 1 | COc1cccc2c1CN(C(=O)c1c(O)cc(O)cc1OCc1ccccc1)C2 [Example 19, (2-benzyloxy-4,6-dihydroxy-phenyl)-(4-methoxyisoindolin-2-yl)methanone]
30 | > 10 | > 10 | O=C(c1c(O)cc(O)cc1OCc1ccncn1)N1CCCC1 [Example 20, [2,4-dihydroxy-6-(pyrimidin-4-ylmethoxy)phenyl]-pyrrolidin-1-yl-methanone]
31 | 1 to 10 | < 1 | CC(Oc1cc(O)cc(O)c1C(=O)N1Cc2ccccc2C1)c1ccccc1 (stereo not drawn) [Example 27, [2,4-dihydroxy-6-(1-phenylethoxy)phenyl]-isoindolin-2-yl-methanone]
32 | > 10 | < 1 | Cc1cccc(COc2c(C)c(O)cc(O)c2C(=O)N2Cc3cccnc3C2)c1 [Example 31, 5,7-dihydropyrrolo[3,4-b]pyridin-6-yl-[4,6-dihydroxy-3-methyl-2-(m-tolylmethoxy)phenyl]methanone]
33 | > 10 | – | COc1ccc2c(c1)CN(C(=O)c1c(O)cc(O)c(C)c1OCc1ccccn1)CC2 [Example 46, [4,6-dihydroxy-3-methyl-2-(2-pyridylmethoxy)phenyl]-(7-methoxy-3,4-dihydro-1H-isoquinolin-2-yl)methanone]
